In patent US20050197372A1 (priority 2002, published 2005):

Columns and labels:
Type in all cases: cell-based, human
[1] = tested on: shear-induced platelet aggregation; assay: PFA-100 closure time, epinephrine/collagen cartridge; conditions: baseline 201 ± 22
Procedure: (§1) None of them received aspirin or any other anti-platelet agents. All subjects underwent blood sampling after at least 30 minutes of rest and 2 or more hours of fasting. Blood was drawn between 8 and 10 a.m. in order to avoid any diurnal influence and sampled from an antecubital vein using a 21-gauge butterfly needle containing 3.8% sodium citrate (1:9 volume) after having discarded the first 1.5 ml of free running blood. Eleven Vacutainer tubes (4.5 ml) were collected for a total of 49 ml of whole blood-citrate mixture from each study participant. One tube was kept as an internal control and was incubated with buffer solution. […] To avoid possible observer bias, blood samples were coded and blinded. Sampling procedures, and platelet studies were performed by individuals unaware of the protocol.
The platelet function analyzer (PFA-100′, Dade Behring, Deerfield, Ill.) is a device that simulates changes in primary hemostasis after injury to a small vessel under flow conditions. Kundu S K, et al., Semin Thromb Hemost 1995; 21(Suppl 2): 106-112. The time required to obtain occlusion of the aperture was digitally recorded as a measure of shear-induced platelet aggregation. Closure time determinations were performed in duplicate.

[2] = tested on: platelet glycoprotein IIb/IIIa antigen (GPIIb, CD41); assay: Whole blood flow cytometry, GP IIb/IIIa antigen expression; conditions: for Expression of platelet glycoprotein IIb/IIIa antigen (GPIIb, CD41): baseline 521.8 ± 98.2
Procedure: as §1
(§2) The expression of platelet receptors was determined by using the following monoclonal antibodies: CD31 (platelet endothelial cell adhesion molecule (PECAM-1), CD41 (glycoprotein [GP] IIb/IIIa, (IIb (3), CD42b (GP Ib), CD 51/CD61 ((v (3, or vitronectin receptor), CD62p (P-selectin), CD107a (lysosome associated membrane protein-1; LAMP-1), CD 107b (LAMP-2), CD151 (platelet/endothelial tetraspan antigen-3; PETA-3), and PAC-1 for fibrinogen-platelet (PharMingen, San Diego, Calif.). Platelet-leukocyte interactions were assessed by using dual antibodies for a pan-platelet marker (CD 151), together with CD14, a monocyte/macrophage marker. The blood-citrate mixture (50 μl) was diluted with 450 μl Tris buffered saline (TBS) (10 mmol/L Tris, 0.15 mol/L sodium chloride) and mixed by gently inverting an Eppendorf tube 2 times. Five μl of the corresponding antibodies were then added to each solution and the samples were incubated for 30 minutes. After incubation, 400 μl of 2% buffered paraformaldehyde was added for fixation. The samples were analyzed by a Becton Dickinson FACScan flow cytometer set up to measure fluorescent light scatter, as described in Gurbel P A, et al., J Am Coll Cardiol. 1998; 31: 1466-1473. The data were collected in list mode files and then analyzed. P selectin was expressed as percent positive cells as described in Gurbel P A, et al, Am Heart J 2000; 139: 320-328. Other antigens were expressed as log mean fluorescence intensity.

[3] = tested on: platelet vitronectin receptor (CD51/CD61); assay: Whole blood flow cytometry, vitronectin receptor expression; conditions: whole blood flow cytometry
Procedure: as §1, §2

[4] = tested on: Glycoprotein IIb/IIIa activity (fibrinogen binding, PAC-1); assay: Whole blood flow cytometry, GP IIb/IIIa activity (PAC-1); conditions: for Glycoprotein IIb/IIIa activity (fibrinogen binding, PAC-1): baseline 10.3 ± 2.8
Procedure: as §1, §2

[5] = tested on: platelet/endothelial tetraspan antigen -3 (PETA-3, CD151); assay: Whole blood flow cytometry, PETA-3 expression; conditions: for Expression of platelet/endothelial tetraspan antigen -3 (PETA-3, CD151): baseline 88.7 ± 24.2
Procedure: as §1, §2

[6] = tested on: platelet/endothelial cell adhesion molecule-1 (PECAM-1, CD31); assay: Whole blood flow cytometry, PECAM-1 expression; conditions: for Expression of platelet/endothelial cell adhesion molecule-1 (PECAM-1, CD31): baseline 69.2 ± 10.3
Procedure: as §1, §2

[7] = tested on: platelet-leukocyte microparticles (CD151 + CD14); assay: Whole blood flow cytometry, platelet-leukocyte microparticles; conditions: for Formation of platelet-leukocyte microparticles (CD151 + CD14): baseline 92.2 ± 19.3
Procedure: as §1, §2

[8] = tested on: lysosome associated membrane protein -1 (LAMP-1, CD107a); assay: Whole blood flow cytometry, LAMP-1 expression; conditions: baseline 8.7 ± 3.2
Procedure: as §1, §2

[9] = tested on: glycoprotein Ib (GPIb, CD42b); assay: Whole blood flow cytometry, GP Ib expression; conditions: for Expression of glycoprotein Ib (GPIb, CD42b): baseline 246.4 ± 26.7
Procedure: as §1, §2

[10] = tested on: platelets (agglutination with fibrinogen-coated beads); assay: Ultegra rapid platelet-function assay (RPFA-ASA); conditions: baseline 159 ± 27
Procedure: as §1
A rapid platelet-function assay cartridge test (RPFA-ASA, Ultegra® Accumetrics, Inc., San Diego, Calif., USA), using polystyrene beads coated cartridges with lyophilized human fibrinogen-coated microparticles, and propyl gallat served as an agonist. The whole blood citrate mixture was added to the cartridge, and agglutination between platelets and coated beads was recorded. The data mirrored turbidometric platelet aggregation and reflected the degree of platelet prostaglandin blockade. Smith J W, et al., Circulation 1999; 99: 620-625. Ultegra® assays were performed in duplicate. An electronic quality control test was performed on each instrument every day of use prior to performing any subject samples.

In the case of `CCCCC(=O)N(Cc1ccc(-c2ccccc2-c2nnn[nH]2)cc1)[C@H](C(=O)O)C(C)C` [Valsartan, (S)-N-(1-carboxy-2-methyl-prop-1-yl)-N-pentanoyl-N-[2;(1H-tetrazol-5-yl)biphenyl-4-yl-methyl]amine, reference compound], the “PFA-100 closure time with the epinephrine/collagen cartridge” value ([1]; drug 10 nM) is reported as 187 ± 30 s, the “PFA-100 closure time with the epinephrine/collagen cartridge” value ([1]; drug 100 nM) is reported as 209 ± 21 s and the “PFA-100 closure time with the epinephrine/collagen cartridge” value ([1]; drug 1 μM) is reported as 268 ± 19 s. For the same compound, the “PFA-100 closure time with the epinephrine/collagen cartridge” value ([1]; drug 10 μM) was 278 ± 20 s, the “PFA-100 closure time with the epinephrine/collagen cartridge” value ([1]; drug 100 μM) was 200 ± 27 s and the “Expression of platelet glycoprotein IIb/IIIa antigen (GPIIb, CD41)” value ([2]; drug 10 nM) was 531.2 ± 102.5 log MFI. For the same compound, the “Expression of platelet glycoprotein IIb/IIIa antigen (GPIIb, CD41)” value ([2]; drug 100 nM) was 502.9 ± 112.7 log MFI, the “Expression of platelet glycoprotein IIb/IIIa antigen (GPIIb, CD41)” value ([2]; drug 1 μM) was 498.2 ± 94.5 log MFI and the “Expression of platelet glycoprotein IIb/IIIa antigen (GPIIb, CD41)” value ([2]; drug 10 μM) was 506.7 ± 100.1 log MFI. For the same compound, the “Expression of platelet glycoprotein IIb/IIIa antigen (GPIIb, CD41)” value ([2]; drug 100 μM) was 455.2 ± 99.6 log MFI, the “Effect on expression of GP IIb/IIIa (CD 41) (in words)” value ([2]; whole blood flow cytometry) was “decreased expression of CD41 only at a high dose” and the “Effect on expression of vitronectin receptors (in words)” value [3] was “moderately reduced”. The “Glycoprotein IIb/IIIa activity (fibrinogen binding, PAC-1)” value (“Glycoprotein IIb/IIIa activity” below) ([4]; drug 10 nM) was 9.3 ± 2.87 log MFI, the “Glycoprotein IIb/IIIa activity” value ([4]; drug 100 nM) was 11.2 ± 3.4 log MFI and the “Glycoprotein IIb/IIIa activity” value ([4]; drug 1 μM) was 7.0 ± 2.9 log MFI. For the same compound, the “Glycoprotein IIb/IIIa activity” value ([4]; drug 10 μM) was 6.9 ± 2.7 log MFI, the “Glycoprotein IIb/IIIa activity” value ([4]; drug 100 μM) was 9.9 ± 3.1 log MFI and the “Effect on fibrinogen binding (PAC-1) (in words)” value ([4]; whole blood flow cytometry) was “slightly reduced”. The “Expression of platelet/endothelial tetraspan antigen -3 (PETA-3, CD151)” value ([5]; drug 10 nM) was 84.1 ± 19.7 log MFI, the “Expression of platelet/endothelial tetraspan antigen -3 (PETA-3, CD151)” value ([5]; drug 100 nM) was 91.5 ± 23.4 log MFI and the “Expression of platelet/endothelial tetraspan antigen -3 (PETA-3, CD151)” value ([5]; drug 1 μM) was 81.6 ± 20.1 log MFI. The “Expression of platelet/endothelial tetraspan antigen -3 (PETA-3, CD151)” value ([5]; drug 10 μM) was 87.9 ± 18.3 log MFI, the “Expression of platelet/endothelial tetraspan antigen -3 (PETA-3, CD151)” value ([5]; drug 100 μM) was 91.7 ± 22.1 log MFI and the “Effect on PETA-3 (CD151) (in words)” value ([5]; whole blood flow cytometry) was “not associated with any effect”. For the same compound, the “Expression of platelet/endothelial cell adhesion molecule-1 (PECAM-1, CD31)” value ([6]; drug 10 nM) was 71.8 ± 11.9 log MFI, the “Expression of platelet/endothelial cell adhesion molecule-1 (PECAM-1, CD31)” value ([6]; drug 100 nM) was 70.6 ± 12.6 log MFI and the “Expression of platelet/endothelial cell adhesion molecule-1 (PECAM-1, CD31)” value ([6]; drug 1 μM) was 74.5 ± 16.2 log MFI. For the same compound, the “Expression of platelet/endothelial cell adhesion molecule-1 (PECAM-1, CD31)” value ([6]; drug 10 μM) was 68.2 ± 16.2 log MFI, the “Expression of platelet/endothelial cell adhesion molecule-1 (PECAM-1, CD31)” value ([6]; drug 100 μM) was 70.6 ± 15.8 log MFI and the “Effect on PECAM-1 (CD31) (in words)” value ([6]; whole blood flow cytometry) was “not associated with any effect”. For the same compound, the “Formation of platelet-leukocyte microparticles (CD151 + CD14)” value (“Formation” below) ([7]; drug 10 nM) was 91.2 ± 20.5 log MFI, the “Formation” value ([7]; drug 100 nM) was 88.4 ± 21.9 log MFI and the “Formation” value ([7]; drug 1 μM) was 93.5 ± 23.8 log MFI. The “Formation” value ([7]; drug 10 μM) was 96.5 ± 18.7 log MFI, the “Formation” value ([7]; drug 100 μM) was 90.5 ± 19.2 log MFI and the “Effect on platelet-leukocyte microparticles (CD151+14) (in words)” value ([7]; whole blood flow cytometry) was “not associated with any effect”. The “Expression of lysosome associated membrane protein -1 (LAMP-1, CD107a)” value (shortened to “Expression … (LAMP-1, CD107a)”) ([8]; drug 10 nM) was 9.1 ± 3.8 log MFI, the “Expression … (LAMP-1, CD107a)” value ([8]; drug 100 nM) was 8.9 ± 2.7 log MFI and the “Expression … (LAMP-1, CD107a)” value ([8]; drug 1 μM) was 9.4 ± 3.9 log MFI. For the same compound, the “Expression … (LAMP-1, CD107a)” value ([8]; drug 10 μM) was 6.5 ± 3.2 log MFI, the “Expression … (LAMP-1, CD107a)” value ([8]; drug 100 μM) was 10.1 ± 4.5 log MFI and the “Expression of glycoprotein Ib (GPIb, CD42b)” value (“Expression of glycoprotein Ib” for short) ([9]; drug 10 nM) was 256.4 ± 31.4 log MFI. For the same compound, the “Expression of glycoprotein Ib” value ([9]; drug 100 nM) was 248.7 ± 20.9 log MFI, the “Expression of glycoprotein Ib” value ([9]; drug 1 μM) was 264.8 ± 18.2 log MFI and the “Expression of glycoprotein Ib” value ([9]; drug 10 μM) was 244.3 ± 46.9 log MFI. The “Expression of glycoprotein Ib” value ([9]; drug 100 μM) was 255.9 ± 19.7 log MFI, the “Effect on GP Ib (CD42) (in words)” value ([9]; whole blood flow cytometry) was “not associated with any effect” and the “Ultegra Analyzer” value ([10]; drug 10 nM) was 164 ± 16 platelet activation units. The “Ultegra Analyzer” value ([10]; drug 100 nM) was 160 ± 29 platelet activation units, the “Ultegra Analyzer” value ([10]; drug 1 μM) was 129 ± 26 platelet activation units and the “Ultegra Analyzer” value ([10]; drug 10 μM) was 130 ± 31 platelet activation units. For the same compound, the “Ultegra Analyzer” value ([10]; drug 100 μM) was 152 ± 19 platelet activation units.
